Data reported in patent publication US20010021514A1, “Luminescent metal-ligand complexes” (priority 1999, published 2001).
Where two headings read alike, the source gives them in different places.

Key:
[1] = background statement on known luminophores; cited from earlier work
[2] = Photoluminescence properties of the probe (spectra, Stokes' shift, lifetime, extinction); type: physicochemical
Text: Photoluminescence may be characterized by a number of parameters, including extinction coefficient, excitation and emission spectrum, Stokes' shift, luminescence lifetime, and quantum yield. An extinction coefficient is a wavelength-dependent measure of the absorbing power of a luminophore. An excitation spectrum is the dependence of emission intensity upon the excitation wavelength, measured at a single constant emission wavelength. An emission spectrum is the wavelength distribution of the emission, measured after excitation with a single constant excitation wavelength. A Stokes' shift is the difference in wavelengths between the maximum of the emission spectrum and the maximum of the absorption spectrum. A luminescence lifetime is the average time that a luminophore spends in the excited state prior to returning to the ground state. A quantum yield is the ratio of the number of photons emitted to the number of photons absorbed by a luminophore.

[3] = Intrinsic polarization from excitation polarization spectra in vitrified solution; type: physicochemical; conditions: for fundamental anisotropy r0: corresponding to the intrinsic polarization; for intrinsic polarization P0: excitation polarization spectra in vitrified solution (glycerol: water=6:4; −55° C.)
Text: Aspects of the invention include the use of selected long-lifetime metal-ligand complexes in luminescence polarization assays. Here, as elsewhere in the application, polarization assays encompass any assays involving detection of polarized light, including steady-steady and time-resolved assays, and computation of polarization and anisotropy functions, among others. […] Here, the invention was used without limitation to monitor interactions between human serum albumin (HSA) and goat-anti-HSA (IgG) antibodies. The HSA was labeled with a ruthenium-ligand complex polarization probe, Sunnyvale Red™ (SVR™), as described elsewhere in this application. […] These values were determined by measuring the excitation polarization spectra in vitrified solution (glycerol: water=6:4; −55° C.).

| Compound | luminescence lifetime (general statement) [1] | Stokes' shift [2] [nm] | emission maximum [2] [nm] | excitation maximum [2] [nm] | luminescence lifetime [2] | excitation maximum ([2]; listed as SVR) [nm] | luminescence lifetime ([2]; listed as SVR) [ns] | extinction coefficient E(SVR) ([2]; used with A479 for dye concentration) | fundamental anisotropy r0 [3] | fundamental anisotropy r0 ([3]; listed as SVR) | intrinsic polarization P0 [3] | intrinsic polarization P0 ([3]; listed as SVR) |
| --- | --- | --- | --- | --- | --- | --- | --- | --- | --- | --- | --- | --- |
| O=C([O-])c1ccnc(-c2cc(C(=O)[O-])ccn2)c1.[Ru+2].c1ccc(-c2ccccn2)nc1.c1ccc(-c2ccccn2)nc1 [Ru(bpy)2dcbpy, ruthenium 2,2′-dibipyridyl 4,4′-dicarboxyl-2,2′-bipyridine] | roughly 400 nanoseconds | – | – | – | – | – | – | – | – | – | – | – |
| Ru(bpy)2(dacbpy)-ITC [Sunnyvale Red™] | – | ~200 | 670 | 488 | about 360 ns | 487 | 360 | ~15,000 | about 0.28 | 0.27 | about 0.37 | 0.36 |
